Results taken from patent US5310938A, “Substituted arylpyrrole compounds” (American Cyanamid Company, priority 1993, dated 1994).
Where “and” joins values, the source holds several entries; their conditions need not be identical. Equal values may be shown once. Read-outs that look alike come from different tables or passages of the source.

What was measured:
[1] = system: Trichostrongylus colubriformis; assay: Control of helminths (T. colubriformis) in infected gerbils; type: in vivo, Trichostrongylus colubriformis (sheep origin) in gerbils
Description: Each test generally consists of 75 infected gerbils, randomly distributed 2 or 3 per cage (the number of animals per cage is consistent within a specific experiment). Generally, there are 8-9 untreated control gerbils (3-4 cages) per test. The remaining cages are assigned a treatment, usually 1 cage per compound or dose.
Compounds administered in diet are fed for 4 days. Animals treated by gavage or injection are generally treated on only 1 day (usually day 7).
In accordance with this test, gerbils are each orally infected by gavage, with about 400 Trichostrongylus colubriformis infective larvae of sheep origin. The infected animals are then permitted to feed and drink ad libitum for six days. On day 7 the infected gerbils are randomly placed in rodent cages 2 or 3 animals per cage. The animals in each cage are weighed and the feed for each cage weighed. If the treatment to be evaluated is medicated feed, said medicated feed is offered on day 7 and continued through day 11 of the trial. If the treatment to be evaluated is a single oral dose or a parenteral treatment, the animals are given the medication by gavage or injection on day 7 and receive unmedicated feed and water through day 11 of the trial. On day 11 the animals and their feed are weighed. Thereafter the animals are euthanized by CO2 inhalation and their small intestines removed, inverted on application sticks and incubated in tap water at 39° C. for 1-5 hours. The sticks and intestines are then discarded and the worms from each treatment counted to determine the % mortality of the worms as compared to untreated controls.

[2] = system: Caenorhabditis elegans; assay: Nematicidal activity against C. elegans (motility rating); type: in vivo, C. elegans (Bristol strain); parameters: scale not given here; conditions: read at 4 and 24 hours post-immersion
Description: Cultures of C. elegans (Bristol strain from J. Lewis) are maintained on E. coli lawns on NG Agar Plates at 20° C. New cultures are established weekly.
Nematodes for testing are washed from 4-5 day old cultures using Fresh Ascaris Ringers Solution (FARS). The worms are further washed with FARS,-containing gentamycin, to reduce bacterial contamination and centrifuged to separate worms from wash solution. This procedure is repeated three times. The washed worms are then added to C. brigassae Maintenance Medium (CbMM), from GIBCOa to which is added gentamycin (600 units/ml) and mycostatin (0.5 mg/ml).
Compounds are dissolved in acetone and made up to volume with equal parts of water. The final test concentration of each compound in the mixture is 150 ppm. The test material is micropipetted (25 ul) into a single well of a 96-well sterile tissue culture plate (COSTAR)^b and the solvent allowed to evaporate. These "treated" plates are used immediately or stored in a refrigerator without apparent adverse effects on the compounds.
A freshly prepared volume ([…]) of C. elegans in CbMM is micropipetted into each treated well and several control wells per plate. Culture plates are incubated at 20° C.
Observations for efficacy are made under a dissecting microscope at 4 and 24 hours post-immersion. Immediately prior to reading the plate, it is gently tapped to stimulate the movement of the worms. Activity is judged based on the drug effects on motility of the adults and larvae. […] Other factors indicating activity are easily noted such as death, rigor mortis, contraction, coiling, paralysis, abnormal twitching, reduced worm population in 48 hours and other deviation from normal behavior.
Day 0 Inoculate E. Coli-NG Agar Dish With 30-40
Day 4 Harvest New C. Elegans Population
Add C. Elegans (25-100 µL) To "Medicated"
Observe for Activity at 4 hours Post-
Day 5 Observe For Activity

[3] = system: Psoroptes cuniculi; assay: Filter paper contact test against Psoroptes cuniculi (Rabbit Ear Mite); type: in vivo; conditions: Psoroptes ovis
Description: On the day prior to the test initiation the drugs to be evaluated are dissolved in acetone and diluted to the desired concentrations. The concentration is calculated so that 400 μl contains the amount of test compound to be placed on each filter paper. 400 μl of this solution is pipetted onto a top (3.7 cm dia.) and bottom (3.5 cm dia.) filter paper disks which are then placed on a ceramic plate to dry. There is a rough and smooth side to the filter paper. Drug should be applied to the rough side which is placed up while drying. When dry the two disks are placed in a Petri dish with the rough sides facing in, separated by one 3 mm glass bead. Dishes are held at room temperature overnight if done the day before the test.
Scab (containing mites) is collected from the ears of infested rabbits the morning of the test. This material is placed in a large Petri dish under an illuminated magnifier. Mites crawl out of the scab and are easily collected on the point of a dissecting needle or one prong of a pair of fine forceps. The top filter paper in each dish is removed and 12 mites are placed on the bottom disk and the top paper replaced. Before replacing the top of the Petri dish the rim of the dish is smeared with Vaseline to trap any escaping mites.
For evaluation tests there are generally 4 replicates of each dose which are counted at 24 hours. After mites are added to the dishes, the dishes in each replicate are placed in a tray which is then placed in a plastic bag with several wet towels and held at room temperature.
After 24 hours dishes are examined under a dissecting scope. Each dish is opened carefully and the top filter paper removed and saved. A 1/2 cm circle is drawn on the bottom filter paper and the paper gently wet in the area of the circle. All mites from the dish are transferred into the wet circle area and counted. The top cover is replaced on each dish and the dishes set aside for at least 15 minutes. After standing the dishes are examined and the mites remaining on the circle counted. These mites are dead. Percent mortality of the mites is then calculated for each treatment.

[4] = system: Ctenocephalides felis; assay: Filter paper contact test against the cat flea; type: in vivo; conditions: 20.0 μg/cm^2, 24 hour
Description: This test is conducted in the same manner as the mite filter paper test described in Example 2 with the following exceptions:
(1) only one filter paper is used on the bottom of the dish;
(2) Unfed fleas that have emerged from pupae within the last 24 hours are used for the test. Fleas are initially collected in glass vials and then temporarily immobilized by placing the vials in ice. Once the fleas are no longer active, vials are opened and fleas dumped into Petri dishes. The number of fleas per dish will vary but generally contain 8-12 fleas.
(3) Dishes are held for 24 hours until the mortality counts are made;
(4) Edges of the Petri dish are sealed with Scotch tape to prevent escape of the fleas; and
(5) Dishes are not opened when test is read but fleas are observed under dissecting scope in the dishes. Some fleas will move under the filter paper so dish should be inverted to check. Fleas are considered dead if they cannot remain upright and jump.

[5] = system: Housefly Larvae; assay: Inhibition of pupation of newly emerged housefly larvae; type: in vivo; conditions: Musca domestica, 168 h, one week, 27° C., corrected by Abbott's formula
Description: In this test system newly emerged housefly larvae are grown on an undefined medium of fermented whole milk and dried beef blood. Compounds are added to the milk and activity is determined by the failure of larvae to pupate.
The test is run in 1 oz. plastic medicine cups. Paper toweling is cut in pieces approximately 3.5×10 cm. Three of these pieces are folded accordion style and placed in each paper cup. A piece of masking tape is placed on the outside of the cup to facilitate numbering. Cups should be prepared prior to the day the test is to begin.
Newly hatched housefly larvae are obtained on the morning the test is to begin. The eggs are laid the night before and larvae usually begin to hatch by 9-10 AM the following morning.
Twenty-four hours before the initiation of the test, one half gallon of whole milk is divided into 5 1-liter beakers and placed in an incubator at 39° C.
The morning of the test, one 250 ml beaker is labeled for each treatment. The fermented milk is removed from the incubator, stirred and poured into each of the small beakers. The beakers are then returned to the incubator and 1-2 g of dried beef blood added to each beaker to distribute blood which will not dissolve. The beakers are again returned to the incubator.
Doses of compounds are calculated so that 0.1 ml contains the amount of compound to be added to 100 ml of milk. Compounds should be dissolved in acetone. 100 μl of acetone is added to each control beaker.
Each beaker is removed from incubator and placed on a magnetic stirrer. The compound is added and thoroughly mixed. Then 20 ml portions are removed and added to labelled test cups (4 reps/treatment). Cups are placed in stainless steel tray until all are prepared. […] The tray containing the cups are then placed in a plastic bag and maintained at room temperature.
The media that the fly eggs are laid in is spread out in a green or black pan so that larvae can be observed. Working under an illuminated magnifier 20 larvae are transferred into each cup using a fine paint brush. Each cup is then sealed in a Zip-Loc sandwich bag with a few pinholes in it.
Bags containing cups are placed on a flat tray and placed in a 27° C. incubator for one week. The majority of the larvae will have pupated at this point.
Trays are then removed from the incubator and the number of pupae in each bag recorded. The paper toweling is removed and examined closely for any pupae that have remained in the cups. Most of the pupae will be loose in the bag. A note is also made of any dead or live developed larvae. If there are larvae that appear capable of pupating, the bag may be returned to the incubator for a day to see if they will pupate.
The percent development of pupae is then calculated. The final results are expressed as a percent inhibition of pupation and are corrected for control mortality by using Abbott's formula.

[6] = system: Dermacentor variabilis; assay: Filter paper contact test against larval stages of the Dogtick; type: in vivo; conditions: for mortality at 1 µg/cm2, 1 µg/cm2: 1.0 μg/cm^2, 48 hour; for mortality at 5 µg/cm2, 5 µg/cm2: 5.0 μg/cm^2, 48 hour; for mortality at 10 µg/cm2, 10 µg/cm2: 10.0 μg/cm^2, 48 hour
Description: The test procedure used herein is the same procedure described in Example 2, for evaluating the arylpyrroles for control of Psoroptes cuniculi the Rabbit Ear Mite, with the following exceptions:
(1) Unfed larval ticks are obtained from egg masses laid by gravid female ticks removed from dogs and each replicate receives ticks from the same egg mass;
(2) Ticks survive longer than mites in the Petri dishes, thus readings are made 48 hours or longer after the test is initiated; and
(3) When reading the test it may be necessary to blow on the ticks to stimulate their movement.

[7] = 24 h, read-out: 24 hour % Mortality
[8] = 4.0 μg/cm^2, 24 hour, read-out: 24 hour % Mortality

Compound | % Helminth removal ([1]; 500 PPM in diet, 4 days) | Rating Against C. Elegans 150 ppm [2] | mortality at 20 µg/cm2, 20 µg/cm2 [4] [%] | inhibition at 10 ppm [5] [%] | mortality at 4 µg/cm2, 4 µg/cm2 [3, 8] [%] | further results
4-Bromo-1-(ethoxymethyl)-5-(trifluoromethyl)pyrrole-3-carbonitrile | 13% |  |  |  |  | 
O=[N+]([O-])c1cc(C(F)(F)F)[nH]c1-c1ccc(Cl)c(Cl)c1 [2-(3,4-Dichlorophenyl)-3-nitro-5-(trifluoromethyl)-pyrrole] |  | 9 | 73 | 100 |  | mortality at 4 µg/cm2, 4 µg/cm2 [3, 7]: 100%
N#Cc1[nH]c(-c2ccc(Cl)cc2)c(C#N)c1Br [3-Bromo-5-(p-chlorophenyl)pyrrole-2,4-dicarbonitrile] | 54% and 36% and 50% | 9 | 47 | 100 | 48 | inhibition at 1 ppm [5]: 0%; % Helminth removal ([1]; single oral dose 10 mg/kg): 25%; % Helminth removal ([1]; single oral dose 25 mg/kg): 18%
O=[N+]([O-])c1c(-c2ccccc2)[nH]c(C(F)(F)F)c1C(F)(F)F [3-nitro-2-phenyl-4,5-bis(trifluoromethyl)pyrrole] | 42% | 9 |  |  |  | 
CCOCn1c(Cl)c(Cl)c(C#N)c1-c1ccc(C(F)(F)F)cc1 [4,5-Dichloro-1-(ethoxymethyl)-2-(α,α,α-trifluoro-P-tolyl)pyrrole-3-carbonitrile] |  | 9 | 71 | 64 | 92 | mortality at 0.01 µg/cm2, 0.01 µg/cm2 [3, 7]: 48%; mortality at 0.1 µg/cm2, 0.1 µg/cm2 ([3]; 0.1 μg/cm^2, 24 hour): 20%; mortality at 1 µg/cm2, 1 µg/cm2 ([3]; 1.0 μg/cm^2, 24 hour): 100%; mortality at 16 µg/cm2, 16 µg/cm2 ([3]; 16.0 μg/cm^2, 24 hour): 100%; mortality at 1 µg/cm2, 1 µg/cm2 [6]: 52%; mortality at 5 µg/cm2, 5 µg/cm2 [6]: 100%; mortality at 10 µg/cm2, 10 µg/cm2 [6]: 97%
CCOCn1c(-c2ccc(Cl)cc2)c(C#N)c(Br)c1C(F)(F)F [4-Bromo-2-(P-chlorophenyl)-1-(ethoxymethyl)-5-(trifluoromethyl)-2-(α,α,α-trifluoro-P-tolyl)pyrrole-3-carbonitrile] | 29% |  |  |  |  | 
CCOCn1c(-c2ccc(Cl)c(Cl)c2)c(C#N)c(Br)c1C(F)(F)F [4-bromo-2-(3,4-dichlorophenyl)-1-(ethoxymethyl)-5-(trifluoromethyl)-pyrrole-3-carbonitrile] | 15% and 28% | 9 |  |  |  | 
CCOCn1c(-c2ccc(Cl)cc2)c(C#N)c(Br)c1C(F)(F)F [4-bromo-2-(P-chlorophenyl)-1-(ethoxymethyl)-5-(trifluoromethyl)pyrrole-3-carbonitrile] |  | 9 |  | 99 | 76 | mortality at 1 µg/cm2, 1 µg/cm2 [6]: 77%; mortality at 4 µg/cm2, 4 µg/cm2 ([6]; 4.0 μg/cm^2, 48 hour): 83%; mortality at 5 µg/cm2, 5 µg/cm2 [6]: 100%; mortality at 10 µg/cm2, 10 µg/cm2 [6]: 100%; inhibition at 1 ppm [5]: 15%; inhibition at 2.5 ppm ([5]; 2.5 ppm): 0%; inhibition at 5 ppm ([5]; 5.0 ppm): 38%
